Molecules are shown by their SMILES. Read-outs that look alike come from different tables or passages of the source. A value given as a limit tells only on which side of the number the result lay.

The results in this text go back to patent US6693216B2, “Calcium double salts” (Nutrinova Nutrition Specialties & Food Ingredients GmbH, priority 2000, dated 2004).

For series [1] the following is noted: sealed. The source says:
Salts prepared as in example 1 were dried, stored under the specified conditions without the addition of other substances and checked at regular intervals visually for discoloration: […]

In series [2] the test system is Yeasts. Particulars: Part I, 1 g/l in apple juice pH 4.5, 25° C.
In series [3] the test system is Thermophilic bacilli. The settings on record: Part I, 1 g/l in apple juice pH 4.5, 25° C.
Series [4] relates to Lactic acid bacteria. The settings on record: Part I, 1 g/l in apple juice pH 4.5, 25° C.
Series [5] concerns Bacilli. The settings on record: Part I, 1 g/l in apple juice pH 4.5, 25° C.
The test system of series [6] is Molds I. The settings on record: Part I, 1 g/l in apple juice pH 4.5, 25° C.
Series [7] has as its system Gram-negative bacteria. Particulars: Part I, 1 g/l in apple juice pH 4.5, 25° C.
The subject of series [8] is Clostridia. Particulars: Part I, 1 g/l in apple juice pH 4.5, 25° C.
Series [9] deals with Acetic acid bacteria. Particulars: Part I, 1 g/l in apple juice pH 4.5, 25° C.
The test system of series [10] is Gram-positive bacteria. The settings on record: Part I, 1 g/l in apple juice pH 4.5, 25° C.

As for `CCC(=O)[O-].O=C([O-])c1ccccc1.[Ca+2]`, the “Time after yellow-brown discoloration of a 1% strength aqueous solution” value in series [1] (dark at 7° C.) is 12 months; in series [1] (dark at 25° C.), 8 months; in series [1] (under sunlight at 7° C.), 12 months; in series [1] (under sunlight at 25° C.), 7-8 months. For the same molecule, the “Time after yellow-brown discoloration of the powder” value worked out at 12 months in series [1] (dark at 7° C.), 7 months in [1] (dark at 25° C.), 12 months in series [1] (under sunlight at 7° C.) and 8 months in series [1] (under sunlight at 25° C.).
As for `C/C=C/C=C/C(=O)[O-].[K+]` [Potassium Sorbate], the “Number of surviving microorganisms per g of contaminated sample, Yeasts” value in series [2] (1 day after inoculation (2.5 × 10^4)) is 2.7 × 10^5 CFU/g; in series [2] (3 days after inoculation (2.5 × 10^4)), 1.1 × 10^4 CFU/g; in series [2] (7 days after inoculation (2.5 × 10^4)), 6.0 × 10^2 CFU/g; in series [2] (14 days after inoculation (2.5 × 10^4)) it was below 10 CFU/g. For the same molecule, the “Number of surviving microorganisms per g of contaminated sample, Thermophilic bacilli” value in series [3] (1 day after inoculation (1.3 × 10^4)) is on record as 1.6 × 10^3 CFU/g; in series [3] (3 days after inoculation (1.3 × 10^4)), 900 CFU/g; in series [3] (7 days after inoculation (1.3 × 10^4)), below 100 CFU/g; in [3] (14 days after inoculation (1.3 × 10^4)), below 10 CFU/g. Moreover, the “Number of surviving microorganisms per g of contaminated sample, Lactic acid bacteria” value in series [4] (1 day after inoculation (1.9 × 10^4)) was 1.3 × 10^4 CFU/g; in series [4] (3 days after inoculation (1.9 × 10^4)), 1.2 × 10^6 CFU/g; in series [4] (7 days after inoculation (1.9 × 10^4)), 1.7 × 10^6 CFU/g; in series [4] (14 days after inoculation (1.9 × 10^4)), 1.2 × 10^7 CFU/g. For the same molecule, the “Number of surviving microorganisms per g of contaminated sample, Bacilli” value in series [5] (1 day after inoculation (1.5 × 10^4)) is on record as 1.4 × 10^3 CFU/g; in series [5] (3 days after inoculation (1.5 × 10^4)), “(<100) CFU/g”; in [5] (7 days after inoculation (1.5 × 10^4)), 1.4 × 10^3 CFU/g; in [5] (14 days after inoculation (1.5 × 10^4)) it was 1.3 × 10^3 CFU/g. Further, the “Number of surviving microorganisms per g of contaminated sample, Molds I” value was 5.0 × 10^4 CFU/g in series [6] (1 day after inoculation (1.7 × 10^4)), below 100 CFU/g in series [6] (3 days after inoculation (1.7 × 10^4)), below 10 CFU/g in [6] (7 days after inoculation (1.7 × 10^4)) and below 10 CFU/g in series [6] (14 days after inoculation (1.7 × 10^4)). Further, the “Number of surviving microorganisms per g of contaminated sample, Gram-negative bacteria” value is reported as 2.9 × 10^4 CFU/g in series [7] (1 day after inoculation (2.4 × 10^4)), 1.5 × 10^3 CFU/g in [7] (3 days after inoculation (2.4 × 10^4)), 350 CFU/g in series [7] (7 days after inoculation (2.4 × 10^4)) and below 10 CFU/g in series [7] (14 days after inoculation (2.4 × 10^4)). Besides, the “Number of surviving microorganisms per g of contaminated sample, Clostridia” value in series [8] (1 day after inoculation (1.4 × 10^4)) is 1.1 × 10^3 CFU/g; in [8] (3 days after inoculation (1.4 × 10^4)) it was 450 CFU/g; in series [8] (7 days after inoculation (1.4 × 10^4)), 160 CFU/g; in series [8] (14 days after inoculation (1.4 × 10^4)), 250 CFU/g. For the same molecule, the “Number of surviving microorganisms per g of contaminated sample, Acetic acid bacteria” value is given as 1.7 × 10^4 CFU/g in series [9] (1 day after inoculation (2.3 × 10^4)), 4.3 × 10^5 CFU/g in [9] (3 days after inoculation (2.3 × 10^4)), 1.3 × 10^3 CFU/g in series [9] (7 days after inoculation (2.3 × 10^4)) and 2.7 × 10^5 CFU/g in series [9] (14 days after inoculation (2.3 × 10^4)). In addition, the “Number of surviving microorganisms per g of contaminated sample, Gram-positive bacteria” value is 5.5 × 10^4 CFU/g in [10] (1 day after inoculation (2.6 × 10^4)), 7.0 × 10^3 CFU/g in series [10] (3 days after inoculation (2.6 × 10^4)), below 100 CFU/g in series [10] (7 days after inoculation (2.6 × 10^4)) and below 10 CFU/g in series [10] (14 days after inoculation (2.6 × 10^4)).
